Like-named read-outs stand apart in the source and are kept apart here. Bounds are passed on as bounds.

The text below walks through data of patent US20240124483A1, “Methods for the Treatment of Fibrotic Disease” (SHY Therapeutics, LLC, priority 2021, published 2024).

For assay [1], the system named is MiaPaca2. In words: MiaPaca2 proliferation. Type of assay: cell-based. As to conditions: Homo sapiens, MIA PaCa-2; for inhibition at 10 µM: read-out: % inh of proliferation in MiaPaca2.
Assay [2] deals with AKT phosphorylation. Briefly: Western AKT Cell-Based Phosphorylation Assay. As to conditions: Homo sapiens, PANC-1, 6 hours, EGF 1.5 ng/ml, read-out: % inh of AKT phosphorylation in PANC-1. In outline: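 PANC-1 cells, serum-starved overnight in 0.5% FBS, were treated with compound at 10 μM (0.3% DMSO) for 6 h at 37 °C and then stimulated with 1.5 ng/ml EGF for 15 min. Lysates (15–50 μg) were immunoblotted for phospho-Akt Ser473, with ECL detection.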

In assay [3] the test system is ERK1/2 phosphorylation. In words: Western ERK1/2 Cell-Based Phosphorylation Assay. As to conditions: Homo sapiens, PANC-1, 6 hours, EGF 1.5 ng/ml, read-out: % inh of ERK1/2 phosphorylation in PANC-1. In outline:
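Panc-1 cells starved overnight in 0.5% FBS, then treated with compound (10 μM or serial dilutions for IC50, 0.3% DMSO) for 6 h at 37 °C. Cells stimulated with 1.5 ng/ml EGF for 15 min, lysed. Phospho-ERK1/2 (Thr202/Tyr204) measured by western blot on 15-50 μg protein.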

For assay [4], the target named is KRas Q61H mutant (Homo sapiens (Human), UniProt P01116, Q61H). In words: Ras GTP Binding Domain Inhibition Assay, KRas Q61H mutant. The settings on record: 20 μM. In outline:
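His-tagged KRas proteins coated on nickel plates overnight at 4° C in Tris buffer (pH 7.4 or 7.0, MgCl2, DTT); compounds at 20 μM final (or serial dilutions for IC50) for 3 h at room temperature, ±Sos (residues 556-1049) in final hour. Bound Cy3- or Cy5-GTP (100 nM, 45 min) read by fluorescence after washing.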

The mark [5] stands for this setting: + SOS, read-out: KRas Q61H mutant + SOS: % inh.
[6] abbreviates: without SOS, read-out: KRas Q61H mutant: % inh.

Chain of KRas Q61H mutant (P01116 other isoform, or with tags, fused parts or gaps Q61H): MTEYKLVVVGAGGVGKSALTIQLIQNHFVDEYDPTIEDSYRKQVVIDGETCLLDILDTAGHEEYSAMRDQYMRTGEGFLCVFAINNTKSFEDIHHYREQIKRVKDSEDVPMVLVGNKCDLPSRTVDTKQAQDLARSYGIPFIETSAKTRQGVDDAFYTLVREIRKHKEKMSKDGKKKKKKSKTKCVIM

`COCCn1c(-c2nccn2C)nc2sc(-c3ccn(C(C)C)n3)c(C)c2c1=O` [Compound 29, 6-(1-Isopropyl-1H-pyrazol-3-yl)-3-(2-methoxyethyl)-5-methyl-2-(1-methyl-1H-imidazol-2-yl)thieno[2,3-d]pyrimidin-4(3H)-one] gave an IC50 in assay [1] of 5 to 10 µM. In addition, the inhibition at 10 µM in assay [1] was 46 to 75%; in assay [2] it was 0%; in assay [3], 0%. Moreover, the inhibition at 20 µM in assay [4] (setting [5]) lay within 76 to 100%; in assay [4] (setting [6]), 46 to 75%.
As to `COCCCn1c(-c2nccn2C)nc2sc(-c3ccn(C(C)C)n3)c(C)c2c1=O` [Compound 31, 6-(1-Isopropyl-1H-pyrazol-3-yl)-3-(3-methoxypropyl)-5-methyl-2-(1-methyl-1H-imidazol-2-yl)thieno[2,3-d]pyrimidin-4(3H)-one], the IC50 in assay [1] was > 10 µM. The inhibition at 10 µM in assay [1], in assay [2] and in assay [3] was 0% in each case. The inhibition at 20 µM in assay [4] (setting [5]) and in assay [4] (setting [6]) was 0% each time.
Turning to `Cc1c(-c2ccn(C(C)C)n2)sc2nc(-c3nccn3C)nc(NCCN3CCS(=O)(=O)CC3)c12` [Compound 23, 4-(2-((6-(1-Isopropyl-1H-pyrazol-3-yl)-5-methyl-2-(1-methyl-1H-imidazol-2-yl)thieno[2,3-d]pyrimidin-4-yl)amino)ethyl)thiomorpholine 1,1-dioxide], the IC50 in assay [1] was > 10 µM. Besides, the inhibition at 10 µM in assay [1], in assay [2] and in assay [3] was 0% throughout. For the same compound, the inhibition at 20 µM in assay [4] (setting [5]) and in assay [4] (setting [6]) was 76 to 100% throughout.
For the compound `Cc1c(-c2ccn(C(C)C)n2)sc2nc(-c3nccn3C)nc(NCC3CCCO3)c12` (racemic) [Compound 26, rac-6-(1-Isopropyl-1H-pyrazol-3-yl)-5-methyl-2-(1-methyl-1H-imidazol-2-yl)-N-((tetrahydrofuran-2-yl)methyl)thieno[2,3-d]pyrimidin-4-amine], the IC50 in assay [1] was > 10 µM. The inhibition at 10 µM in assay [1] was 46 to 75%; in assay [2] it was 0%; in assay [3], 0%. The inhibition at 20 µM in assay [4] (setting [5]) and in assay [4] (setting [6]) was 76 to 100% in each case.
Regarding `COCCCOc1nc(-c2nccn2C)nc2sc(-c3ccn(C(C)C)n3)c(-c3ccccc3)c12` [Compound 37, 6-(1-Isopropyl-1H-pyrazol-3-yl)-4-(3-methoxypropoxy)-2-(1-methyl-1H-imidazol-2-yl)-5-phenylthieno[2,3-d]pyrimidine], in assay [1], the IC50 is > 10 µM. Moreover, the inhibition at 10 µM was 1 to 25% in assay [1], 0% in assay [2] and 0% in assay [3]. Besides, the inhibition at 20 µM in assay [4] (setting [5]) and in assay [4] (setting [6]) was 0% in each case.
As to `COc1cc(-c2sc3nc(-c4nccn4C)nc(N[C@H]4C[C@H](OC)C4)c3c2-c2ccccc2)ccn1` [Compound 46, N-((1r,3r)-3-Methoxycyclobutyl)-6-(2-methoxypyridin-4-yl)-2-(1-methyl-1H-imidazol-2-yl)-5-phenylthieno[2,3-d]pyrimidin-4-amine], in assay [1], the IC50 was in the range of 1 to 4.99 µM. For the same compound, the inhibition at 10 µM in assay [1] fell in the range of 76 to 100%; in assay [2], 1 to 25%; in assay [3], 76 to 100%. For the same compound, the inhibition at 20 µM in assay [4] (setting [5]) and in assay [4] (setting [6]) was 76 to 100% in each case.
On to `COc1cccc(-c2sc3nc(-c4nccn4C)nc(N[C@H]4C[C@H](OC)C4)c3c2C)c1F` [Compound 42, 6-(2-Fluoro-3-methoxyphenyl)-N-((1r,3r)-3-methoxycyclobutyl)-5-methyl-2-(1-methyl-1H-imidazol-2-yl)thieno[2,3-d]pyrimidin-4-amine], for which, in assay [1], the IC50 lay within 5 to 10 µM. For the same compound, the inhibition at 10 µM in assay [1] was in the range of 76 to 100%; in assay [2] it was 26 to 45%; in assay [3], 46 to 75%. For the same compound, the inhibition at 20 µM in assay [4] (setting [5]) lay in the range of 76 to 100%; in assay [4] (setting [6]), 46 to 75%.
In the case of `COCC1(OC)CCN(c2nc(-c3nccn3C)nc3sc(-c4ccn(C(C)C)n4)c(C)c23)C1` (racemic) [Compound 27, rac-6-(1-Isopropyl-1H-pyrazol-3-yl)-4-(3-methoxy-3-(methoxymethyl)pyrrolidin-1-yl)-5-methyl-2-(1-methyl-1H-imidazol-2-yl)thieno[2,3-d]pyrimidine], in assay [1], the IC50 fell in the range of 5 to 10 µM. Further, the inhibition at 10 µM in assay [1] lay within 76 to 100%; in assay [2] it was 26 to 45%; in assay [3], 1 to 25%. The inhibition at 20 µM in assay [4] (setting [5]) fell in the range of 76 to 100%; in assay [4] (setting [6]) it was 46 to 75%.
The compound `COCCn1ccc(-c2sc3nc(-c4nccn4C)nc(NC[C@H]4CC[C@H]4COC)c3c2C)n1` (racemic) [Compound 38, rac-6-(1-(2-Methoxyethyl)-1H-pyrazol-3-yl)-N-(((1S,2R)-2-(methoxymethyl)cyclobutyl)methyl)-5-methyl-2-(1-methyl-1H-imidazol-2-yl)thieno[2,3-d]pyrimidin-4-amine] showed a half-inhibitory concentration (IC50) in assay [1] of 5 to 10 µM. Also, the results for the inhibition at 10 µM in assay [1], in assay [2] and in assay [3] were 76 to 100%, 0% and 46 to 75%, respectively. Moreover, the inhibition at 20 µM was 76 to 100% in assay [4] (setting [5]) and 46 to 75% in assay [4] (setting [6]).
Compound `COC1CCCN(c2nc(-c3nccn3C)nc3sc(-c4ccn(C(C)C)n4)c(C)c23)C1` (racemic) [Compound 14, rac-6-(1-Isopropyl-1H-pyrazol-3-yl)-4-(3-methoxypiperidin-1-yl)-5-methyl-2-(1-methyl-1H-imidazol-2-yl)thieno[2,3-d]pyrimidine] registered an IC50 in assay [1] of 5 to 10 µM. Moreover, the inhibition at 10 µM in assay [1] lay within 76 to 100%; in assay [2] it was 46 to 75%; in assay [3], 76 to 100%. The inhibition at 20 µM was 76 to 100% in assay [4] (setting [5]) and 26 to 45% in assay [4] (setting [6]).
As for `COc1cc(-c2sc3nc(-c4nccn4C)nc(N[C@@H]4CC[C@@H](OC)C4)c3c2-c2ccccc2)ccn1` (racemic) [Compound 47, N-((1R,3R)-3-Methoxycyclopentyl)-6-(2-methoxypyridin-4-yl)-2-(1-methyl-1H-imidazol-2-yl)-5-phenylthieno[2,3-d]pyrimidin-4-amine], in assay [1], the IC50 is < 1 µM. Also, the inhibition at 10 µM in assay [1], in assay [2] and in assay [3] was 76 to 100% each time. Besides, the inhibition at 20 µM in assay [4] (setting [5]) is 76 to 100%; in assay [4] (setting [6]) it was 46 to 75%.
Consider `COc1cccc(Nc2nc(-c3nccn3C)nc3sc(-c4ccn(C(C)C)n4)c(C)c23)n1` [Compound 18, 6-(1-Isopropyl-1H-pyrazol-3-yl)-N-(6-methoxypyridin-2-yl)-5-methyl-2-(1-methyl-1H-imidazol-2-yl)thieno[2,3-d]pyrimidin-4-amine], for which, in assay [1], the IC50 is < 1 µM. For the same compound, the inhibition at 10 µM in assay [1] is 76 to 100%; in assay [2] it was 26 to 45%; in assay [3], 0%. Moreover, the inhibition at 20 µM in assay [4] (setting [5]) and in assay [4] (setting [6]) was 46 to 75% each time.
